In this experiment the test system is FAP-expressing CAFs. The experiment is described as follows: Cellular uptake and cellular uptake blockade in CAFs. It counts as cell-based, human. Here is the method:
A human HCC cell line Huh7 was purchased from the National Experimental Cell Resource Sharing Platform, China. CAFs were extracted from a surgical specimen of an HCC patient.
After the CAFs were verified as cells with high FAP expression, the next experiment was conducted. […]
FAP-expressing CAFs were inoculated in a 24-well plate and cultivated with a 10% (volume fraction) FBS-containing 1640 medium for 48 h before the experiment until a cell density was about 80% to 90%; the medium was changed to an FBS-free 1640 medium; and the ^68Ga-2PEG(3)-FAPI-dimer, ^68Ga-FAPI-46, or ^68Ga-2PEG(3)-FAPI-dimer+11.3 nmol FAPI-46 (for the blocking experiment) was added to the 24-well plate and incubated, with predetermined intervals of 10 min, 30 min, 60 min, 90 min, and 120 min. […] A half-inhibitory concentration (IC50s) was calculated by using GraphPad Prism to fit data through nonlinear regression. […]

In the case of `CN(CCCN1CCN(C(=O)COCCOCCOCCNC(=O)CCC(=O)N[C@@H](CCCCNC(=O)CN2CCN(CC(=O)[O-])CCN(CC(=O)[O-])CCN(CC(=O)[O-])CC2)C(=O)NCCOCCOCCOCC(=O)N2CCN(CCCN(C)c3ccc4nccc(C(=O)NCC(=O)N5CC(F)(F)C[C@H]5C#N)c4c3)CC2)CC1)c1ccc2nccc(C(=O)NCC(=O)N3CC(F)(F)C[C@H]3C#N)c2c1.[68Ga+3]` [^68Ga-2PEG(3)-FAPI-dimer], where the note is “+11.3 nmol FAPI-46”, the “cell uptake blockade: binding to FAP blocked by FAPI-46 precursor” value is listed as “can significantly block”. Also, the “absorption value relative to ^68Ga-FAPI-46 monomer in CAFs” value (incubation 10 min to 120 min) is reported as “about twice”.

The values are drawn from patent US11952368B2, “FAPI dimer compound, FAPI dimer-based positron emission tomography (PET) imaging agent for tumor diagnosis, and preparation method and use thereof” (XIAMEN UNIVERSITY, priority 2021, dated 2024).
